Reference: patent publication US9763980B2, “Combined chemical modification of sphingosine-1-phosphate (S1P) and CXCR4 signalling pathways for hematopoietic stem cell (HSC) mobilization and engraftment” (Children's Medical Center Corporation, priority 2011, dated 2017)
Entries after “also recorded” stand apart in the source; their conditions may differ.

What was measured:
[1] = test system: CHT hematopoiesis (HSPC markers cmyb and runx1 in the CHT); assay: Zebrafish embryo chemical treatment and dose matrices, whole mount in situ hybridization of cmyb/runx1 in the CHT; assay type: in vivo; conditions: for cmyb/runx1 expression in the CHT (CHT hematopoiesis): agent alone, treatment from 48 hpf, 72 hpf embryos; for rescue of the effect of 25 μM W146 on cmyb/runx1 expression: addition of agent to W146; for Experimental data: concentration of S1PR1 modulating agent in the combination effective at increasing HSC engraftment / Experimental data: concentration of S1PR1 modulating agent in the combination effective at increasing HSC mobilization: combination with AMD3100; for mobilization of HSC from the bone marrow in vivo: combination with AMD3100 in specific ratios
Experimental: Transgenic zebrafish embryos were intercrossed and selected using epifluorescence (e.g. Runx1+23:EGFP, cmyb:EGFP^4, cd41:EGFP^2, kdrl:DsRed2^31). Live imaging was performed using a spinning disk confocal microscope with an incubated chamber. Zebrafish embryos were mounted and imaged as previously described. Live mouse fetal liver explants were prepared as previously described for aorta-gonad-mesonephros tissue^10. Image processing was done primarily with Fluorender^32 and ImageJ, which included the MTrackJ plugin^33 for manual cell tracking. For chemical screening and dose matrices, stage-matched AB embryos were dechorionated and arrayed 8-10/well in 96-well mesh-bottomed plates (Millipore). Embryos were treated from 48-72 hpf by placement directly in 96-well receiver plates containing small molecules diluted in E3 media+1% DMSO. Embryos were checked for circulation before fixation. Whole mount in situ hybridization was performed as previously described^34, with the addition of 0.2% glutaraldehyde to 4% formaldehyde at the post-fixation step. […] Lineage tracing was performed by injecting cd41:EGFP positive embryos with caged fluorescein conjugated to dextran (MW 10000). Embryos were uncaged in the DA at 28 hpf with a UV laser. Embryos were raised to 46 hpf in E3 media or E3+S1PR1 antagonist W146 (10 μM), then fixed for antibody staining to detect double positive cd41:EGFP and uncaged FITC HSPCs. Receptor fusion cDNAs (25 pg) were injected into one-cell embryos with Tol2 RNA (15 pg). Flow cytometry was performed using a LSR II and cells were sorted using a FACSAria (BD Biosciences). Flow cytometry data was analyzed using FACSDiva and FlowJo software.
Having followed newly born aortic HSPCs to the intermediate tissue, the inventors assessed the signaling pathways involved in embryonic migration. The inventors designed a chemical genetic screen to introduce small molecules to the zebrafish embryo from the peak window of HSPC migration to the CHT (48-72 hpf).

[2] = test system: HSPCs in the CHT; assay: Time-lapse live imaging and cell tracking in the CHT (Runx1+23:EGFP; kdrl:DsRed2); assay type: in vivo, zebrafish
Experimental: (§1) Transgenic zebrafish embryos were intercrossed and selected using epifluorescence (e.g. Runx1+23:EGFP, cmyb:EGFP^4, cd41:EGFP^2, kdrl:DsRed2^31). Live imaging was performed using a spinning disk confocal microscope with an incubated chamber. Zebrafish embryos were mounted and imaged as previously described. Live mouse fetal liver explants were prepared as previously described for aorta-gonad-mesonephros tissue^10. Image processing was done primarily with Fluorender^32 and ImageJ, which included the MTrackJ plugin^33 for manual cell tracking. For chemical screening and dose matrices, stage-matched AB embryos were dechorionated and arrayed 8-10/well in 96-well mesh-bottomed plates (Millipore). Embryos were treated from 48-72 hpf by placement directly in 96-well receiver plates containing small molecules diluted in E3 media+1% DMSO. Embryos were checked for circulation before fixation. Whole mount in situ hybridization was performed as previously described^34, with the addition of 0.2% glutaraldehyde to 4% formaldehyde at the post-fixation step. Morpholino (s1pr1/edg1 ATG-MO^23 obtained from Gene Tools, LLC) was injected into one-cell Tu or cmyb:EGFP; kdrl:DsRed2 transgenic embryos at a 1 ng dose (higher doses stop circulation). Lineage tracing was performed by injecting cd41:EGFP positive embryos with caged fluorescein conjugated to dextran (MW 10000). Embryos were uncaged in the DA at 28 hpf with a UV laser. Embryos were raised to 46 hpf in E3 media or E3+S1PR1 antagonist W146 (10 μM), then fixed for antibody staining to detect double positive cd41:EGFP and uncaged FITC HSPCs. Receptor fusion cDNAs (25 pg) were injected into one-cell embryos with Tol2 RNA (15 pg). Flow cytometry was performed using a LSR II and cells were sorted using a FACSAria (BD Biosciences). Flow cytometry data was analyzed using FACSDiva and FlowJo software.
Time-lapse live imaging. Staged transgenic zebrafish embryos were selected and mounted for imaging in 1% LMP agarose with E3 media and tricaine as described. Pregnant C57/BL6 mice were dissected at E11 (vaginal plug observation was E0). Embryos were removed from the uterus in PBS with 10% FCS and penicillin-streptomycin. Embryos were staged as E11 by counting ˜42 somite pairs. Fetal livers were removed from the embryo and treated as described by Boisset and colleagues (“protocol b”)^10. Zebrafish embryos and fetal liver explants were imaged in MatTek glass bottom dishes (No. 1.5 cover slip). […] Quantification of 12 hours of CHT tracking data per time-lapse movie allowed us to define engrafted cells as stationary (i.e. a speed of <0.31 microns/minute) and resident in the CHT for at least 3 hours, otherwise they were scored as migratory and transient. […]

[3] = test system: HSPCs in the CHT; assay: Lineage tracing of HSPCs from DA to CHT (cd41:EGFP and uncaged FITC); assay type: in vivo, zebrafish; conditions: W146 10 μM, versus control
Experimental: as §1, with “Lineage tracing was performed by injecting cd41:EGFP positive embryos with caged fluorescein conjugated to dextran (MW 10000). Embryos were uncaged in the DA at 28 hpf with a UV laser. Embryos were raised to 46 hpf in E3 media or E3+S1PR1 antagonist W146 (10 μM), then fixed for antibody staining to detect double positive cd41:EGFP and uncaged FITC HSPCs. Receptor fusion cDNAs (25 pg) were injected into one-cell embryos with Tol2 RNA (15 pg). Flow cytometry was performed using a LSR II and cells were sorted using a FACSAria (BD Biosciences).” left out, “software. […]” for “software.”

[4] = test system: autoimmune myocarditis; conditions: rat model for autoimmune myocarditis; cited from earlier work
[5] = in vivo; cited from earlier work
[6] = target: T1, endothelial S1P1 receptors (Mus musculus, UniProt O08530); conditions: cited from earlier work
T1 construct: host or cells: vascular endothelium (as cited)
T1 sequence (O08530 whole entry): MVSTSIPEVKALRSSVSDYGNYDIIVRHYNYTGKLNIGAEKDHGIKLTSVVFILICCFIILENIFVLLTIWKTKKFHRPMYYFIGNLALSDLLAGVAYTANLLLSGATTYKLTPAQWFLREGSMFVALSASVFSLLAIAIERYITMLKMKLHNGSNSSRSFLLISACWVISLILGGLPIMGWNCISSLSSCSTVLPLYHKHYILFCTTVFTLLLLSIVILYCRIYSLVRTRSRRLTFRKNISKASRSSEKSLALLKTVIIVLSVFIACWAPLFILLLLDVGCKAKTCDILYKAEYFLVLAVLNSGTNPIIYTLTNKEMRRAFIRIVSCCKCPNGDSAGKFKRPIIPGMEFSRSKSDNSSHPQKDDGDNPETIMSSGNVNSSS

[7] = target: T1, endothelial S1P1 receptors; conditions: type I diabetic vascular endothelium; cited from earlier work
[8] = addition of AUY954, 54 hpf embryos
[9] = dose matrices, agent combined with AMD3100
[10] = W146 10 μM, 38-50 hpf, versus control

With `c1cc(CN2CCCNCCNCCCNCC2)ccc1CN1CCCNCCNCCCNCC1` [AMD3100, 1,1′-[1,4-Phenylenebis(methylene)]bis[1,4,8,11-tetraazacyclotetradecane]] as the compound, how does the “cmyb/runx1 expression in the CHT” value ([1]; AMD3100 25 μM, 54 hpf embryos) read?
Its value is “greatly decreases”.

What about the “cmyb/runx1 expression in the CHT (CHT hematopoiesis)” value [1] of the same compound?
Its value is “dose-dependently reduces; also recorded: decreases CHT hematopoiesis”.

And the CHT hematopoiesis ([1]; each agent alone at the doses of the effective FTY720/AMD3100 combination)?
Its CHT hematopoiesis is “no effect”.

Which results are given for `O=C(O)CCNCc1ccc2sc(-c3ccc(-c4ccccc4)c(C(F)(F)F)c3)cc2c1` [AUY954, 3-[[2-[4-phenyl-3-(trifluoromethyl)phenyl]-1-benzothiophen-5-yl]methylamino]propanoic acid]?
CHT score (greatest engraftment in dose matrix) ([1]; 10 μM AMD3100 and 12.5 μM AUY945): +2; rescue of the cmyb/runx1 decrease caused by 25 μM AMD3100 [1, 8]: partially rescued; rescue of the effect of 25 μM SKI-2 [1, 8]: rescued; rescue of the effect of 25 μM W146 on cmyb/runx1 expression ([1]; 54 hpf embryos): rescued; Experimental data: concentration of S1PR1 modulating agent in the combination effective at increasing HSC engraftment [1]: 12.5 µM; CHT hematopoiesis [1, 9]: synergistic increases

Which “rescue of the effect of 25 μM W146 on cmyb/runx1 expression” value ([1]; 54 hpf embryos) does the source give for `CCCCCCCCCCCCC/C=C/[C@@H](O)[C@@H](N)COP(=O)(O)O` [Compound S1P, sphingosine-1-phosphate] here?
Its value is “rescued”.

What about the “cmyb/runx1 expression in the CHT (CHT hematopoiesis)” value [1] of the same compound?
Its value is “altered the migration pattern of HSPCs; also recorded: alters cmyb/runx1 expression pattern”.

What about the CHT hematopoiesis [1, 9] of the same compound?
The CHT hematopoiesis was “synergistic increases”.

With `CCCCCCc1cccc(NC(=O)[C@H](N)CCP(=O)(O)O)c1` [Compound W146, (R)-3-Amino-4-(3-hexylphenylamino)-4-oxobutylphosphonic acid] as the compound, how does the “number of engrafted cells” value [2, 10] read?
The value was “decreased”.

And the “percentage of migratory cells” value [2, 10]?
Its value is “increased”.

What about the “tracked cells in the CHT” value [2, 10] of the same compound?
The value was “increased”.

And the CHT colonization ([2]; embryos in the antagonist during imaging)?
Its CHT colonization is “interferes with CHT colonization”.

And the “number of lineage traced HSPCs in the CHT” value ([3]; embryos raised to 46 hpf)?
Its value is “increased”.

What about the “morphology of lineage traced HSPCs in the CHT” value [3] of the same compound?
Its value is “morphology that differed from the control; also recorded: morphological changes”.

And the “CHT score in dose matrix” value ([1]; 5 μM AMD3100 and 10 μM W146)?
The value was “greatest CHT score”.

What about the “cmyb/runx1 expression in the CHT” value ([1]; W146 25 μM, 54 hpf embryos) of the same compound?
Its value is “decreases”.

What about the “Experimental data: concentration of S1PR1 modulating agent in the combination effective at increasing HSC engraftment” value [1] of the same compound?
Its value is 10 µM.

What about the “Experimental data: concentration of S1PR1 modulating agent in the combination effective at increasing HSC mobilization” value [1] of the same compound?
Its value is 5 μM W146.

And the “mobilization of HSC from the bone marrow in vivo” value [1]?
Its value is “improves mobilization”.

Which therapeutic efficacy [4] does the source give for `NC(CO)(CO)CCc1ccc(Sc2cccc(OCc3ccccc3)c2)cc1Cl` [KRP-203] here?
The therapeutic efficacy was “therapeutic efficacy”.

Which bradycardia [5] does the source give for `FC(F)(F)c1cccc(-c2noc(-c3cc(-c4ccccc4)c(C(F)(F)F)s3)n2)c1` [SEW2871, 5-[4-phenyl-5-(trifluoromethyl)-2-thienyl]-3-[3-(trifluoromethyl)phenyl]-1,2,4-oxadiazole] here?
The bradycardia was “does not induce bradycardia”.

And the “protection of the vasculature against TNFα-mediated monocyte/endothelial interactions” value [6]?
The value was “protects”.

And the “CHT score (greatest engraftment in dose matrix)” value ([1]; 10 μM AMD3100 and 10 μM SEW2871)?
The value was “+2”.

And the “Experimental data: concentration of S1PR1 modulating agent in the combination effective at increasing HSC engraftment” value [1]?
The value was 10 µM.

What about the “Experimental data: concentration of S1PR1 modulating agent in the combination effective at increasing HSC mobilization” value [1] of the same compound?
The value was 15 µM.

What about the “mobilization of HSC from the bone marrow in vivo” value [1] of the same compound?
The value was “improves mobilization”.

And the CHT hematopoiesis [1, 9]?
The CHT hematopoiesis was “synergistic increases”.

What about the proinflammatory monocyte/endothelial interactions [7] of the same compound?
The proinflammatory monocyte/endothelial interactions was “prevents”.

Which results are given for `Oc1ccc(Nc2nc(-c3ccc(Cl)cc3)cs2)cc1` [SKI-2]?
effect of SKI-2 in CHT hematopoiesis assay ([1]; SKI-2 25 μM, 54 hpf embryos): depleting endogenous levels of S1P; effect on improving engraftment (CHT) ([1]; SKI-2 alone): little effect
